Measured values from PubChem BioAssay (NCI).
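All cell lines were grown in 96-well plates and treated with compound for 48 hours. TGI: total growth inhibition.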

Tests used:
Assay in all cases: NCI anticancer screen, dose series, 48 h
[1] = system: HOP-62 NSCLC
[2] = system: KM20L2 colon
[3] = system: SF-295 CNS
[4] = system: MDA-MB-435
[5] = system: HS 578T breast
[6] = system: SK-OV-3 ovarian
[7] = system: OVCAR-8 ovarian
[8] = system: HOP-92 NSCLC
[9] = system: NCI-H522 lung
[10] = system: NCI/ADR-RES ovarian
[11] = system: MDA-N
[12] = system: RPMI-8226 leukemia
[13] = system: A498 renal
[14] = system: SNB-78 CNS
[15] = system: TK-10 renal
[16] = system: OVCAR-5 ovarian
[17] = system: OVCAR-4 ovarian
[18] = system: U251 CNS
[19] = system: CCRF-CEM leukemia
[20] = system: NCI-H226 lung
[21] = system: MOLT-4 leukemia
[22] = system: A549 NSCLC
[23] = system: SF-539 CNS
[24] = system: LOX IMVI melanoma
[25] = system: RXF 393 renal
[26] = system: UACC-62 melanoma
[27] = system: NCI-H460 lung
[28] = system: DMS 114 small cell lung
[29] = system: LXFL 529 NSCLC
[30] = system: OVCAR-3 ovarian
[31] = system: K-562 leukemia
[32] = system: UO-31 renal
[33] = system: HCT-116 colon
[34] = system: IGROV1 ovarian
[35] = system: ACHN renal
[36] = system: DU-145 prostate
[37] = system: M14 melanoma
[38] = system: HT29 colon
[39] = system: KM12 colon
[40] = system: EKVX NSCLC
[41] = system: SNB-75 CNS
[42] = system: MDA-MB-231 breast
[43] = system: DMS 273 small cell lung
[44] = system: M19-MEL melanoma
[45] = system: SW-620 colon
[46] = system: COLO 205 colon
[47] = system: SK-MEL-2 melanoma
[48] = system: CAKI-1 renal
[49] = system: T-47D breast
[50] = system: SF-268 CNS
[51] = system: SNB-19 CNS
[52] = system: NCI-H23 lung
[53] = system: HL-60(TB) leukemia
[54] = system: SK-MEL-5 melanoma
[55] = system: PC-3 prostate
[56] = system: DLD-1 colon
[57] = system: MCF7 breast
[58] = system: 786-0 renal
[59] = system: SN12C renal
[60] = system: XF 498 CNS
[61] = system: SK-MEL-28 melanoma
[62] = system: HOP-18 NSCLC
[63] = system: BT-549 breast
[64] = system: MALME-3M melanoma
[65] = system: UACC-257 melanoma
[66] = system: HCT-15 colon
[67] = system: HCC-2998 colon
[68] = system: SR leukemia
[69] = system: RXF-631 renal

Structure (SMILES): O=C(NP(=O)(N1CC1)N1CC1)c1cc(I)ccc1I
- TGI [1]: > 71.5 µM
- TGI [2]: > 100 µM
- TGI [3]: > 100 µM
- TGI [4]: > 100 µM
- TGI [5]: > 100 µM
- TGI [6]: 89.9 µM
- TGI [7]: > 94.4 µM
- TGI [8]: > 100 µM
- TGI [9]: > 92.9 µM
- TGI [10]: > 66.1 µM
- TGI [11]: > 100 µM
- TGI [12]: > 100 µM
- TGI [13]: > 100 µM
- TGI [14]: > 100 µM
- TGI [15]: > 100 µM
- TGI [16]: > 100 µM
- TGI [17]: > 100 µM
- TGI [18]: > 100 µM
- TGI [19]: > 78.8 µM
- TGI [20]: > 100 µM
- TGI [21]: > 100 µM
- TGI [22]: > 100 µM
- TGI [23]: 71.7 µM
- TGI [24]: 54.8 µM
- TGI [25]: > 87.8 µM
- TGI [26]: 57.6 µM
- TGI [27]: > 79 µM
- TGI [28]: 99.2 µM
- TGI [29]: > 100 µM
- TGI [30]: 86.6 µM
- TGI [31]: > 100 µM
- TGI [32]: > 100 µM
- TGI [33]: > 100 µM
- TGI [34]: > 100 µM
- TGI [35]: > 65.1 µM
- TGI [36]: > 100 µM
- TGI [37]: > 100 µM
- TGI [38]: > 100 µM
- TGI [39]: > 100 µM
- TGI [40]: > 100 µM
- TGI [41]: 79.1 µM
- TGI [42]: > 100 µM
- TGI [43]: > 100 µM
- TGI [44]: > 100 µM
- TGI [45]: > 100 µM
- TGI [46]: > 100 µM
- TGI [47]: > 100 µM
- TGI [48]: > 100 µM
- TGI [49]: > 100 µM
- TGI [50]: > 100 µM
- TGI [51]: > 100 µM
- TGI [52]: 56.1 µM
- TGI [53]: > 96.4 µM
- TGI [54]: > 100 µM
- TGI [55]: > 100 µM
- TGI [56]: > 100 µM
- TGI [57]: > 100 µM
- TGI [58]: > 100 µM
- TGI [59]: > 100 µM
- TGI [60]: > 100 µM
- TGI [61]: > 100 µM
- TGI [62]: > 100 µM
- TGI [63]: > 100 µM
- TGI [64]: > 92 µM
- TGI [65]: > 100 µM
- TGI [66]: > 100 µM
- TGI [67]: > 100 µM

Structure (SMILES): CCC1CN2CCc3c([nH]c4ccccc34)C2C[C@@H]1CC(=O)N(C)C (stereo not given in full)
- TGI [1]: > 100 µM
- TGI [2]: > 100 µM
- TGI [3]: > 100 µM
- TGI [6]: > 100 µM
- TGI [7]: > 100 µM
- TGI [8]: > 100 µM
- TGI [9]: > 100 µM
- TGI [13]: > 100 µM
- TGI [14]: > 100 µM
- TGI [15]: > 100 µM
- TGI [16]: > 100 µM
- TGI [17]: > 100 µM
- TGI [18]: > 100 µM
- TGI [68]: > 100 µM
- TGI [19]: > 100 µM
- TGI [20]: > 100 µM
- TGI [21]: > 100 µM
- TGI [22]: > 100 µM
- TGI [23]: > 100 µM
- TGI [24]: > 100 µM
- TGI [25]: > 100 µM
- TGI [27]: > 100 µM
- TGI [28]: > 100 µM
- TGI [29]: > 100 µM
- TGI [30]: > 100 µM
- TGI [31]: > 100 µM
- TGI [32]: > 100 µM
- TGI [33]: > 100 µM
- TGI [34]: > 100 µM
- TGI [35]: > 100 µM
- TGI [37]: > 100 µM
- TGI [38]: > 100 µM
- TGI [39]: > 100 µM
- TGI [40]: > 100 µM
- TGI [41]: 92.6 µM
- TGI [43]: > 100 µM
- TGI [44]: > 100 µM
- TGI [45]: > 100 µM
- TGI [46]: > 100 µM
- TGI [47]: > 100 µM
- TGI [50]: > 100 µM
- TGI [51]: > 100 µM
- TGI [52]: > 100 µM
- TGI [53]: > 100 µM
- TGI [54]: > 100 µM
- TGI [56]: > 100 µM
- TGI [58]: > 100 µM
- TGI [59]: > 100 µM
- TGI [60]: > 100 µM
- TGI [61]: > 100 µM
- TGI [62]: > 100 µM
- TGI [64]: > 100 µM
- TGI [65]: > 100 µM
- TGI [66]: > 100 µM
- TGI [67]: > 100 µM

Structure (SMILES): CC1C[C@@H]2C(=O)NC(=O)[C@@H]2c2c1c1ccccc1n2C (stereo not given in full)
- TGI [1]: > 100 µM
- TGI [2]: > 100 µM
- TGI [3]: > 100 µM
- TGI [6]: > 100 µM
- TGI [7]: > 100 µM
- TGI [8]: > 100 µM
- TGI [9]: > 100 µM
- TGI [12]: > 100 µM
- TGI [13]: > 100 µM
- TGI [14]: > 100 µM
- TGI [15]: > 100 µM
- TGI [18]: > 100 µM
- TGI [19]: > 100 µM
- TGI [20]: > 100 µM
- TGI [21]: > 100 µM
- TGI [22]: > 100 µM
- TGI [23]: > 100 µM
- TGI [24]: > 100 µM
- TGI [25]: > 100 µM
- TGI [26]: > 100 µM
- TGI [27]: > 100 µM
- TGI [28]: > 100 µM
- TGI [29]: > 100 µM
- TGI [30]: > 100 µM
- TGI [31]: > 100 µM
- TGI [32]: > 100 µM
- TGI [34]: > 100 µM
- TGI [37]: > 100 µM
- TGI [38]: > 100 µM
- TGI [39]: > 100 µM
- TGI [69]: > 100 µM
- TGI [40]: > 100 µM
- TGI [41]: > 100 µM
- TGI [43]: > 100 µM
- TGI [44]: > 100 µM
- TGI [45]: > 100 µM
- TGI [46]: > 100 µM
- TGI [47]: > 100 µM
- TGI [48]: > 100 µM
- TGI [50]: > 100 µM
- TGI [51]: > 100 µM
- TGI [52]: > 100 µM
- TGI [53]: > 100 µM
- TGI [54]: > 100 µM
- TGI [56]: > 100 µM
- TGI [58]: > 100 µM
- TGI [59]: > 100 µM
- TGI [60]: > 100 µM
- TGI [61]: > 100 µM
- TGI [64]: > 100 µM
- TGI [65]: > 100 µM
- TGI [66]: > 100 µM
- TGI [67]: > 100 µM
